Values after ≈ are worked out from the molar mass of the structure shown. Read-outs that look alike come from different tables or passages of the source.
Legend:
Assay type in all cases: cell-based
Proteus mirabilis = assay: MIC by NCCLS broth microdilution, 1100 Japanese clinical isolates 1997-1998; details: Proteus mirabilis (n=30)
Klebsiella pneumoniae = assay: as above; details: Klebsiella pneumoniae (n=35)
E. coli = assay: microbe, parasite or virus in culture; details: Escherichia coli
Enterobacter aerogenes = assay: MIC by NCCLS broth microdilution, 1100 Japanese clinical isolates 1997-1998; details: Enterobacter aerogenes (n=35)
Staphylococcus aureus = assay: as above; details: for MIC: Staphylococcus aureus quinolone resistant
Streptococcus pneumoniae = assay: MIC by two-fold serial agar dilution, Sensitivity Disk agar-N (Kitasato isolates); details: for MIC90: read-out: MIC90; for MIC: read-out: MIC Range
Serratia marcescens = assay: MIC by NCCLS broth microdilution, 1100 Japanese clinical isolates 1997-1998
Enterococcus faecalis = assay: as above; details: for MIC50 / MIC90: Enterococcus faecalis; for MIC90: read-out: MIC90
[1] = Staphylococcus aureus oxacillin susceptible (n=41)
[2] = Staphylococcus aureus, Staphylococcus aureus oxacillin resistant (n=57)
[3] = Enterococcus faecalis ciprofloxacin susceptible (n=24)
[4] = Enterococcus faecalis ciprofloxacin resistant (n=15)

SMILES: NC1CCN(c2nc3c(cc2F)c(=O)c(C(=O)O)cn3-c2ccc(F)cc2F)C1 (centres unmarked) [Tosufloxacin, tosufloxacin]
- MIC Range (Proteus mirabilis): 0.063 to 16 µg/mL
- MIC50 (Proteus mirabilis; read-out: MIC50): 0.25 µg/mL (≈ 0.618 µM)
- MIC90 (Proteus mirabilis; read-out: MIC90): 0.5 µg/mL (≈ 1.24 µM)
- MIC50 (Klebsiella pneumoniae): 0.032 µg/mL (≈ 0.0791 µM)
- MIC Range (Klebsiella pneumoniae): 0.016 to 2 µg/mL
- MIC90 (Klebsiella pneumoniae; read-out: MIC90): 0.063 µg/mL (≈ 0.156 µM)
- MIC50 (E. coli; E. coli (13 strains), quinolone-resistant, read-out: MIC50): 0.063 µg/mL (≈ 0.156 µM)
- MIC90 (E. coli; E. coli (13 strains), quinolone-resistant, read-out: MIC90): 0.25 µg/mL (≈ 0.618 µM)
- MIC (E. coli; E. coli KU1029, mutant type SP (spontaneous mutant in the DNA gyrase)): 0.063 µg/mL (≈ 0.156 µM)
- MIC (E. coli; E. coli KU1030, mutant type SP): 0.031 µg/mL (≈ 0.0767 µM)
- MIC (E. coli; E. coli KU1031, mutant type SP): 0.031 µg/mL (≈ 0.0767 µM)
- MIC (E. coli; E. coli KU1032, mutant type SP): 0.125 µg/mL (≈ 0.309 µM)
- MIC (E. coli; E. coli KU1033, mutant type SP): 0.031 µg/mL (≈ 0.0767 µM)
- MIC (E. coli; E. coli KU1034, mutant type GA (DNA gyrase A)): 0.25 µg/mL (≈ 0.618 µM)
- MIC (E. coli; E. coli KU1035, mutant type GA (DNA gyrase A)): 0.25 µg/mL (≈ 0.618 µM)
- MIC (E. coli; E. coli KU1036, mutant type GB (DNA gyrase B)): 0.031 µg/mL (≈ 0.0767 µM)
- MIC (E. coli; E. coli KU1038, mutant type SP): 0.063 µg/mL (≈ 0.156 µM)
- MIC (E. coli; E. coli KU1039, mutant type SP): 0.063 µg/mL (≈ 0.156 µM)
- MIC (E. coli; E. coli KU1040, mutant type SP): ≤ 0.008 µg/mL
- MIC (E. coli; E. coli KU1041, mutant type SP): 0.25 µg/mL (≈ 0.618 µM)
- MIC (E. coli; E. coli KU1042, mutant type SP): 0.063 µg/mL (≈ 0.156 µM)
- MIC Range (Enterobacter aerogenes): 0.016 to 0.125 µg/mL
- MIC50 (Enterobacter aerogenes; Klebsiella aerogenes): 0.016 µg/mL (≈ 0.0396 µM)
- MIC90 (Enterobacter aerogenes; Klebsiella aerogenes): 0.063 µg/mL (≈ 0.156 µM)
- MIC90 (Staphylococcus aureus; [1]): 0.125 µg/mL (≈ 0.309 µM)
- MIC Range (Staphylococcus aureus; [1]): 0.016 to 1 µg/mL
- MIC50 (Staphylococcus aureus; [2]): 4 µg/mL (≈ 9.89 µM)
- MIC90 (Staphylococcus aureus; [2]): > 16 µg/mL
- MIC50 (Staphylococcus aureus; Staphylococcus aureus, Staphylococcus aureus oxacillin susceptible (n=41)): 0.063 µg/mL (≈ 0.156 µM)
- MIC (Staphylococcus aureus; Staphylococcus aureus, strain TMS1* (spontaneous mutant resistant to ciprofloxacin)): 0.25 µg/mL (≈ 0.618 µM)
- MIC (Staphylococcus aureus; Staphylococcus aureus, strain TMS3, read-out: MIC): > 16 µg/mL
- MIC (Staphylococcus aureus; Staphylococcus aureus, strain TMS4, read-out: MIC): 4 µg/mL (≈ 9.89 µM)
- MIC (Staphylococcus aureus; Staphylococcus aureus, strain TMS5, read-out: MIC): 4 µg/mL (≈ 9.89 µM)
- MIC (Staphylococcus aureus; Staphylococcus aureus, strain TMS6, read-out: MIC): 2 µg/mL (≈ 4.95 µM)
- MIC50 (Streptococcus pneumoniae; Ciprofloxacin-susceptible (94)): 0.125 µg/mL (≈ 0.309 µM)
- MIC50 (Streptococcus pneumoniae; Erythromycin-resistant (37)): 0.125 µg/mL (≈ 0.309 µM)
- MIC50 (Streptococcus pneumoniae; Minocycline-resistant (37)): 0.125 µg/mL (≈ 0.309 µM)
- MIC50 (Streptococcus pneumoniae; Streptococcus pneumoniae): 0.125 µg/mL (≈ 0.309 µM)
- MIC90 (Streptococcus pneumoniae; Streptococcus pneumoniae, 18 h, Ciprofloxacin-resistant (21), ciprofloxacin MIC ≥8 µg/ml): 8 µg/mL (≈ 19.8 µM)
- MIC (Streptococcus pneumoniae; Streptococcus pneumoniae, 18 h, Ciprofloxacin-resistant (21)): 0.25 to 16 µg/mL (≈ 0.618 to 39.6 µM)
- MIC (Streptococcus pneumoniae; Streptococcus pneumoniae, 18 h, Ciprofloxacin-susceptible (94)): 0.063 to 0.5 µg/mL (≈ 0.156 to 1.24 µM)
- MIC (Streptococcus pneumoniae; Streptococcus pneumoniae, 18 h, Erythromycin-resistant (37)): 0.063 to 4 µg/mL (≈ 0.156 to 9.89 µM)
- MIC (Streptococcus pneumoniae; Streptococcus pneumoniae, 18 h, Minocycline-resistant (37)): 0.063 to 4 µg/mL (≈ 0.156 to 9.89 µM)
- MIC (Streptococcus pneumoniae; Streptococcus pneumoniae, 18 h, Penicillin-resistant (19)): 0.063 to 0.5 µg/mL (≈ 0.156 to 1.24 µM)
- MIC50 (Streptococcus pneumoniae; Streptococcus pneumoniae, Ciprofloxacin-resistant (21), read-out: MIC50): 4 µg/mL (≈ 9.89 µM)
- MIC90 (Streptococcus pneumoniae; Streptococcus pneumoniae, Ciprofloxacin-susceptible (94)): 0.25 µg/mL (≈ 0.618 µM)
- MIC90 (Streptococcus pneumoniae; Streptococcus pneumoniae, Erythromycin-resistant (37)): 0.5 µg/mL (≈ 1.24 µM)
- MIC90 (Streptococcus pneumoniae; Streptococcus pneumoniae, Minocycline-resistant (37)): 0.5 µg/mL (≈ 1.24 µM)
- MIC90 (Streptococcus pneumoniae; Streptococcus pneumoniae, Penicillin-resistant (19)): 0.25 µg/mL (≈ 0.618 µM)
- MIC50 (Serratia marcescens; Serratia marcescens): 0.125 µg/mL (≈ 0.309 µM)
- MIC90 (Serratia marcescens; Serratia marcescens (n=30)): 1 µg/mL (≈ 2.47 µM)
- MIC Range (Enterococcus faecalis; [3]): 0.5 - 0.5 µg/ml
- MIC50 (Enterococcus faecalis; [4]): 32 µg/mL (≈ 79.1 µM)
- MIC90 (Enterococcus faecalis; [4]): 32 µg/mL (≈ 79.1 µM)
- MIC50 (Enterococcus faecalis; [3]): 0.5 µg/mL (≈ 1.24 µM)
- MIC90 (Enterococcus faecalis; [3]): 0.5 µg/mL (≈ 1.24 µM)

— patent publication EP1561465A2, “Methods of use of fluoroquinolone compounds against bacteria” (LG Life Sciences, Ltd., priority 1999, dated 2001)
